In ChEMBL document CHEMBL1141725, “DNA-templated click chemistry for creation of novel DNA binding molecules” (Bioorg Med Chem Lett, 2008):

Experiments:
[1] = Binding affinity to double strand CGCG12 DNA by fluorescence titration
[2] = Binding affinity to double strand AATT12 DNA by fluorescence titration
[3] = Stabilization of double strand AATT12 DNA assessed as change in melting temperature
[4] = Stabilization of double strand CGCG12 DNA assessed as change in melting temperature

N=C(N)NCCC[C@@H](CN1CCC[C@H]1C(N)=O)NC(=O)CNC(=O)[C@H](CCCNC(=N)N)NC(=O)[C@@H]1CCCN1C(=O)CCCc1cn(CCCNc2c3ccccc3nc3ccccc23)nn1
Ks [1]: 3.6 ×10⁵ /M
Ks [2]: 7.3 ×10⁵ /M
ΔTm [3]: 8.1 °C
ΔTm [4]: 3.9 °C

[N-]=[N+]=NCCCNc1c2ccccc2nc2ccccc12
Ks [1]: 2 ×10⁵ /M
Ks [2]: 1.6 ×10⁵ /M
ΔTm [3]: 3.1 °C
ΔTm [4]: 2 °C

C#CCCCC(=O)N1CCC[C@H]1C(=O)N[C@@H](CCCNC(=N)N)C(=O)NCC(=O)N[C@@H](CCCNC(=N)N)CN1CCC[C@H]1C(N)=O
Ks [2]: 0.01 ×10⁵ /M
ΔTm [3]: 0 °C
ΔTm [4]: 0 °C
